According to patent US5506256A, “Proline derivatives possessing prolyl endopeptidase-inhibitory activity” (Yoshitomi Pharmaceutical Industries, Ltd., priority 1990, dated 1996):

Tests used:
prolyl endopeptidase = biological target: T1, prolyl endopeptidase (Rattus norvegicus, UniProt O70196); experiment: Prolyl endopeptidase-inhibitory activity; format: biochemical; details: for IC50: prolyl endopeptidase extracted from rat brain, pH 7.0, 30° C., read-out: IC50
T1 construct: prolyl endopeptidase extracted from rat brain; from tissue; host or cells: rat brain
T1 sequence (O70196 whole entry): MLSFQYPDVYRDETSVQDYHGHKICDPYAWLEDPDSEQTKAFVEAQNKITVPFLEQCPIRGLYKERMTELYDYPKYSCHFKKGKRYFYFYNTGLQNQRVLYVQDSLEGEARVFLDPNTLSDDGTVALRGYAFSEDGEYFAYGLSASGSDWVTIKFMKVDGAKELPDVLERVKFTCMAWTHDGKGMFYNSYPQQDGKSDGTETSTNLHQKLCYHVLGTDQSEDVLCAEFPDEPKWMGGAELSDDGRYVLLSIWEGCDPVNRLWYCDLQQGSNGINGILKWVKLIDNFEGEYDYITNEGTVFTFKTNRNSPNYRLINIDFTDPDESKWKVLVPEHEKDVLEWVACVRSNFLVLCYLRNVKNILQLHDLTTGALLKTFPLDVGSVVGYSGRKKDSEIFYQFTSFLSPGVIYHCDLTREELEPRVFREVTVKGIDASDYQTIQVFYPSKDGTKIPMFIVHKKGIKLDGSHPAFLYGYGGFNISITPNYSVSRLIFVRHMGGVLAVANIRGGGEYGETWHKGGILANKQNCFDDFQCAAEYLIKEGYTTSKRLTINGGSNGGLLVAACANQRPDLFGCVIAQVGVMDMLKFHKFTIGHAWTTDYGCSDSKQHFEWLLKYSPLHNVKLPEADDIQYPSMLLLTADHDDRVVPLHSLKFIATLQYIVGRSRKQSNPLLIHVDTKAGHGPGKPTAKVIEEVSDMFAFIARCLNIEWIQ
Outline: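 Rat brain prolyl endopeptidase was preincubated with compound for 30 min at 30 °C in 0.1 M potassium sodium phosphate, pH 7.0. Substrate Suc-Gly-Pro-MCA was then added from a 0.2 mM stock and the reaction run 1 h at 30 °C. After ice stop, fluorescence was read (ex 370/em 440 nm), and IC50 was estimated graphically from % inhibition.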

trypsin = biological target: T2, trypsin (Bos taurus, UniProt P00760); experiment: Determination of trypsin-inhibitory activity; format: biochemical, bovine; details: read-out: inhibition rate, trypsin
T2 construct: purchased Sigma; host or cells: bovine pancreas
T2 sequence (P00760 24-246): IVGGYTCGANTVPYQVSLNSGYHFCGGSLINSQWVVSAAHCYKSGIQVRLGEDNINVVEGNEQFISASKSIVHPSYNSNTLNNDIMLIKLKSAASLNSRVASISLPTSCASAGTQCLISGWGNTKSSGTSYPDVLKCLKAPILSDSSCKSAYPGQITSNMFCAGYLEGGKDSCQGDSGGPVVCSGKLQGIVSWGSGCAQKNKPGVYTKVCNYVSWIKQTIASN
Outline: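 Bovine pancreatic trypsin and compound in 50 mM Tris-HCl pH 8.0 with Pro-Phe-Arg-MCA substrate, 1 h at 30 °C, stopped on ice. Fluorescence at ex 370/em 440 nm. Inhibition rate from compound, no-enzyme and no-compound wells.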

chymotrypsin = biological target: T3, chymotrypsin (Bos taurus, UniProt P00766); experiment: Determination of chymotrypsin-inhibitory activity; format: biochemical, bovine; details: read-out: inhibition rate, chymotrypsin
T3 construct: purchased Sigma; host or cells: bovine pancreas
Outline: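 Bovine pancreatic chymotrypsin (0.2 μM enzyme solution) assayed in 50 mM Tris-HCl, pH 8.0, with the fluorogenic substrate Suc-Leu-Leu-Val-Tyr-MCA. Fluorescence was read with and without inhibitor, and percent inhibition was calculated from the fluorescence values.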

leucine aminopeptidase = experiment: Determination of leucine aminopeptidase-inhibitory activity; format: biochemical, swine; set-up: unit not given here
Outline: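 Swine kidney leucine aminopeptidase ([…] enzyme solution) was measured in 50 mM Tris-HCl pH 8.0 with 7-leucyl-4-methyl-coumarinamide (200 μM substrate solution). Inhibition rate was calculated from fluorescence readings.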

elastase = biological target: T4, elastase (Sus scrofa, UniProt P00772); experiment: Determination of elastase-inhibitory activity; format: biochemical, swine; details: read-out: inhibition rate, elastase
T4 construct: purchased Sigma; host or cells: swine pancreas
T4 sequence (P00772 27-266): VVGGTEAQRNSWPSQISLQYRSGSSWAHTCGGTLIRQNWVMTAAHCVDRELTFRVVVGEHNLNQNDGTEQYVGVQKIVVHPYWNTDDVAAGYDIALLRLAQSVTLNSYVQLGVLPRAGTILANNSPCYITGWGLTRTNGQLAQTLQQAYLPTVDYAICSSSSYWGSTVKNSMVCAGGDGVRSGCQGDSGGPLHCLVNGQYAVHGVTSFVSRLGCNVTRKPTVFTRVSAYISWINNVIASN
Outline: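 Porcine pancreatic elastase (0.2 μM solution) with 200 μM succinyl-Ala-Pro-Ala-4-methylcoumarinamide substrate solution in 1 mM Tris-HCl pH 8.5. Fluorescence measured and inhibition rate calculated by formula.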

cathepsin B = biological target: T5, cathepsin B (Bos taurus, UniProt P07688); experiment: Determination of cathepsin B-inhibitory activity; format: biochemical, bovine; details: read-out: inhibition rate, cathepsin B
T5 construct: purchased Sigma; host or cells: bovine spleen
Outline: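 Bovine spleen cathepsin B (0.02 μM solution) was assayed in 100 mM sodium phosphate, pH 6.0, with 1.33 mM EDTA. The substrate was Z-Phe-Arg-4-methylcoumarinamide (200 μM solution). Percent inhibition was calculated from fluorescence readings.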

[1] = read-out: inhibition rate, prolyl endopeptidase

Structure (SMILES) | inhibition at 1 µM (prolyl endopeptidase; [1]) | IC50 (prolyl endopeptidase) | inhibition at 1 µM (trypsin) | inhibition at 1 µM (chymotrypsin) | inhibition rate, leucine aminopeptidase (leucine aminopeptidase; 1 μM) | inhibition at 1 µM (elastase) | inhibition at 1 µM (cathepsin B) | inhibition at 0.1 µM (prolyl endopeptidase; 0.1 μM, read-out: inhibition rate, prolyl endopeptidase) | inhibition at 0.1 µM (trypsin; 0.1 μM) | inhibition at 0.1 µM (chymotrypsin; 0.1 μM) | inhibition rate, leucine aminopeptidase (leucine aminopeptidase; 0.1 μM) | inhibition at 0.1 µM (elastase; 0.1 μM) | inhibition at 0.1 µM (cathepsin B; 0.1 μM)
COc1ccc(OCC(=O)[C@@H]2CCCN2C(=O)[C@@H]2CCCN2C(=O)CSc2ccccc2)cc1 [Compound 49, (25)-2-(4-Methoxyphenoxyacetyl)-1-{N-[(phenylthio)acetyl]-L-prolyl}pyrrolidine] | 98% | 20 nM | 0% | 0% | 0 | 0% | 0% |  |  |  |  |  | 
COc1ccc(OCC(=O)[C@@H]2CCCN2C(=O)[C@@H]2CCCN2C(=O)OCC23CC4CC(CC(C4)C2)C3)cc1 [Compound 50, (2S)-1-{N-[(1-Adamantyl)methoxycarbonyl]-L-prolyl}-2-(4-methoxyphenoxyacetyl)pyrrolidine] | 97% | 500 nM | 0% | 0% | 0 | 0% | 0% |  |  |  |  |  | 
O=C(COc1ccccc1)[C@@H]1CCCN1C(=O)[C@@H]1CSCN1C(=O)NCc1ccccc1 [Compound 51, (2S)-1-[N-(Benzylaminocarbonyl)-L-thioprolyl]-2-(phenoxyacetyl)pyrrolidine] | 98% | 15 nM | 0% | 0% | 0 | 0% | 0% |  |  |  |  |  | 
CCOC(=O)CN(Cc1ccccc1)C(=O)N1CCC[C@H]1C(=O)N1CCC[C@H]1C(=O)COc1ccccc1 [Compound 52, (2S)-1-{N-[N-Benzyl-N-(ethoxycarbonylmethyl)aminocarbonyl]-L-prolyl}-2-(phenoxyacetyl)pyrrolidine] |  | 2 nM |  |  |  |  |  | 97% | 0% | 0% | 0 | 0% | 0%
CCOC(=O)[C@@H](NC(=O)N1CCC[C@H]1C(=O)N1CCC[C@H]1C(=O)COc1ccccc1)c1ccccc1 [Compound 53, (2S)-1-[N-[[(S)-α-(Ethoxycarbonyl)benzylamino]carbonyl]-L-prolyl]-2-(phenoxyacetyl)pyrrolidine] | 96% | 30 nM | 0% | 0% | 0 | 0% | 0% |  |  |  |  |  | 
O=C(COc1ccccn1)[C@@H]1CCCN1C(=O)[C@@H]1CCCN1C(=O)NCc1ccccc1 [Compound 54, (2S)-1-[N-(Benzylaminocarbonyl)-L-prolyl]-2-[(2-pyridyloxy)acetyl]pyrrolidine] | 85% | 200 nM | 0% | 0% | 0 | 0% | 0% |  |  |  |  |  | 
